Results reported in patent publication US20050239719A1, “Methods of using and compositions comprising thalidomide for the treatment and management of pulmonary hypertension” (priority 2004, published 2005).

Columns and labels:
[1] = system: patients with PH (NYHA functional class III); experiment: Clinical Study 2: 12-week placebo-controlled study in patients with PH; assay type: in vivo, human
Procedure: In one embodiment of the invention, thalidomide is administered in a single or divided daily doses in an amount of from about 200 to about 800 mg/day. The compound is administered to patients with PH for 12 weeks, who are subsequently evaluated for a decline in walk distance, dyspnea score, functional class, pulmonary hemodynamic response. The first study enrolls 32 patients with PH. Patients are all in modified New York Heart Association functional class III at the onset of the study. Patents are maximally treated and are stable on conventional therapy, including calcium channel antagonists and diuretics. Two thirds of patients receive 400 mg of thalidomide for four weeks followed by 800 mg of the compound for eight weeks. One third of patients receive placebo. The primary efficacy endpoint is a 6-minute walk distance. Patients receiving the compound of the invention walk an average of 70 meters farther after 12 weeks while placebo patients have a decline in walk distance. In addition, the treated patients have improvements in dyspnea score and functional class compared with placebo patients. Pulmonary hemodynamic measurements reveal decreases in pulmonary arterial pressure and pulmonary vascular resistance, and increase in cardiac output after 12 weeks of the treatment, compared with worsening of pulmonary hemodynamics in placebo patients. All these changes in treated patients are highly significant compared with placebo.

[2] = system: patients with PH, WHO functional class III or IV; experiment: Expanded Study: 16-week placebo-controlled study in 213 PH patients; assay type: in vivo, human
Procedure: On the basis of the results of the above study 2, the clinical study is expanded with additional 213 PH patients for at least 16 weeks. The study is conducted with patients with PH, WHO functional class III or IV. Two hundred thirteen patients are randomized to receive either 200 mg bid or 400 mg bid of thalidomide or placebo in a 1:1:1 ratio. The primary endpoint, a 6-minute walk distance, is evaluated at 16 weeks. The treated patients walk 36.4 meters further at 16 weeks compared to a 7.8 meter reduction in walk distance in the placebo group, for a treatment effect of 44.2 meters. Clinical worsening, defined by death, premature withdrawal from study, hospitalization for worsening of PH or institution of epoprostenol, occur in 37% of placebo-treated patients, compared with 11% of the patients treated with the compound of the invention.

[3] = 12 weeks, compared with placebo patients
[4] = after 12 weeks of treatment, compared with placebo

## O=C1CCC(N2C(=O)c3ccccc3C2=O)C(=O)N1 (racemic) [thalidomide, 2-(2,6-dioxo-3-piperidinyl)-1H-isoindole-1,3(2H)-dione]
[1]; [3]
  dyspnea score: improvements
  functional class: improvements
[1]; [4]
  cardiac output: increase
  pulmonary arterial pressure: decreases
  pulmonary vascular resistance: decreases
[1]; after 12 weeks, 400 mg for four weeks then 800 mg for eight weeks, PH patients
  6-minute walk distance, average increase: 70 meters
[2]; at 16 weeks, 200 mg bid or 400 mg bid
  6-minute walk distance, increase: 36.4 meters
[2]; at 16 weeks, treated minus placebo (7.8 meter reduction)
  6-minute walk distance, treatment effect versus placebo: 44.2 meters
[2]; treated patients, 37% in placebo-treated patients
  clinical worsening (death, premature withdrawal, hospitalization for worsening of PH or institution of epoprostenol), share of patients: 11%
[2]; treated versus placebo patients
  functional class: improved significantly more
